How the values were obtained:
[1] = molecular target: T1, oxytocin receptors (rat uterus membranes) (Rattus norvegicus, UniProt P70536); assay: Oxytocin Receptor Binding; set-up: species or system female Sprague-Dawley rats
T1 construct: The resulting pellet containing the oxytocin receptors is resuspended; from tissue; host or cells: uterus membranes of DES-treated female Sprague-Dawley rats
T1 sequence (P70536 1-388): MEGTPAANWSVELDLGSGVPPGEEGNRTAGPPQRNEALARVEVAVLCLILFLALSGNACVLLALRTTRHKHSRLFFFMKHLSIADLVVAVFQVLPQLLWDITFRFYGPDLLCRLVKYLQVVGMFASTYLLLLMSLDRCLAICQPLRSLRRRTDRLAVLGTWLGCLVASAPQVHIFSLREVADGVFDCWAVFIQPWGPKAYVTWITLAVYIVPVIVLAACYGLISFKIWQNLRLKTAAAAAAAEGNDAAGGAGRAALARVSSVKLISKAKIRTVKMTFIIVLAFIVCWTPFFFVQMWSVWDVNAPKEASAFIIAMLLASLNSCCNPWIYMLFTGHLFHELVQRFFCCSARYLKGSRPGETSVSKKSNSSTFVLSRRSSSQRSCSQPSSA
Protocol: Female Sprague-Dawley rats weighing approximately 200-250 g are injected intramuscularly (i.m.) with 0.3 mg/kg of body weight of diethylstilbestrol (DES). The rats are sacrificed 18 hours later under pentobarbital anesthesia. The uteri are dissected out, cleaned of fat and connective tissues and rinsed in 50 ml of normal saline. The tissue pooled from six rats is homogenized in 50 ml of […] Tris.HCl, containing 0.5 mM dithiothreitol and 1.0 mM EDTA, adjusted to pH 7.4, using a polytron at setting 6 with three passes of 10 sec each. The homogenate is passed through two (2) layers of cheesecloth and the filtrate centrifuged at 1000×g for 10 min. The clear supernatant is removed and recentrifuged at 165,000×g for 30 min. The resulting pellet containing the oxytocin receptors is resuspended in 50.0 mM Tris.HCl containing 5.0 mM MgCl2 at pH 7.4, to give a protein concentration of 2.5 mg/ml of tissue suspension. This preparation is used in subsequent binding assays with [^3 H]Oxytocin.
Binding of 3,5-[^3 H]Oxytocin ([^3 H]OT) to its receptors is done in microtiter plates using [^3 H]OT, at various concentrations, in an assay buffer of 50.0 mM Tris.HCl, pH 7.4 and containing 5.0 mM MgCl2, and a mixture of protease inhibitors: BSA, 0.1 mg; aprotinin, 1.0 mg; 1,10-phenanthroline, 2.0 mg; […], 10.0 mg; and PMSF, 0.3 mg per 100 ml of buffer solution. Non-specific binding is determined in the presence of 1.0 uM unlabeled OT. The binding reaction is terminated after 60 min., at 22° C., by rapid filtration through glass fiber filters using a Brandel® cell harvester (Biomedical Research and Development Laboratories, Inc., Gaithersburg, Md.). Competition experiments are conducted at equilibrium using 1.0 nM [^3 H]OT and varying the concentration of the displacing agents. The concentrations of agent displacing 50% of [^3 H]OT at its sites (IC50) are calculated by a computer assisted LUNDON-2 program (LUNDON SOFTWARE INC., Ohio, USA).

[2] = molecular target: T2, rat kidney medullary V2 receptors (Rattus norvegicus, UniProt Q00788); assay: Binding Assay to Rat Kidney Medullary V2 Receptors; settings: for IC50: rat kidney medullary V2; for inhibition at 10 µM: rat kidney, read-out: V2, % at concentration in brackets
T2 construct: Medullary tissues from rat kidneys are dissected out; from tissue; host or cells: rat kidney medulla membranes
T2 sequence (Q00788 whole entry): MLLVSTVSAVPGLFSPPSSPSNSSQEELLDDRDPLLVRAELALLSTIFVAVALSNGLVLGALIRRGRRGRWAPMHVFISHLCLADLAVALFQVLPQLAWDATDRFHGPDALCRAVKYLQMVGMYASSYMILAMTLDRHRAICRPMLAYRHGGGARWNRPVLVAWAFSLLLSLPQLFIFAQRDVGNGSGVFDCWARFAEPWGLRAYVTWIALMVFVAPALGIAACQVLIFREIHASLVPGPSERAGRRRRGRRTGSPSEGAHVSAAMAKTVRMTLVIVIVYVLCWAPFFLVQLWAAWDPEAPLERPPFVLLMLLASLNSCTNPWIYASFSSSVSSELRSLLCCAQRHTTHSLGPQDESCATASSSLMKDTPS
How it was run: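 Competition binding: [3H]AVP at 0.8 nM, test compounds from 50% DMSO, and membranes from rat kidney medulla, left 120 min on the bench. Filtration then liquid scintillation counting measured bound ligand; 1.0 μM unlabeled ligand set non-specific binding.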

[3] = molecular target: T3, vasopressin V1 receptor subtype in human platelet membranes (Homo sapiens, UniProt P37288); assay: Binding to Vasopressin V1 Receptor Subtype in Human Platelet Membranes; settings: human platelet V1 (*)
T3 construct: tissue Hudson Valley Blood Services; host or cells: human blood platelets (frozen platelet rich plasma)
T3 sequence (P37288 whole entry): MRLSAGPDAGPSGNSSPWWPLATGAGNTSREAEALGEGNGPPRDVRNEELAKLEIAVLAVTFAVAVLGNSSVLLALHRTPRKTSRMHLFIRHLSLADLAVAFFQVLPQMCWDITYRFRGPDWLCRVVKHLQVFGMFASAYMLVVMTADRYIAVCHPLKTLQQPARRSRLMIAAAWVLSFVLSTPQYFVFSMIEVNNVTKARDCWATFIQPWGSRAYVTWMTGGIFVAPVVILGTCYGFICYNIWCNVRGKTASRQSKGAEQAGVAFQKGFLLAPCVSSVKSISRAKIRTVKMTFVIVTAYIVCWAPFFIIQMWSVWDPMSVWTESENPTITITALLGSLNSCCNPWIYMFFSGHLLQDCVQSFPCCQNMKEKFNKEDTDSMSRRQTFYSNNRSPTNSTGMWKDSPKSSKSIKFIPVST
Protocol: (a) Platelet Membrane Preparation:
Frozen platelet rich plasma (PRP), received from the Hudson Valley Blood Services, are thawed to room temperature. (Platelet Source: Hudson Valley Blood Services, Westchester Medical Center, Valhalla, N.Y.). The tubes containing the PRP are centrifuged at 16,000×g for 10 min. at 4° C. and the supernatant fluid discarded. The platelets resuspended in an equal volume of 50.0 mM Tris.HCl, pH 7.5 containing 120 mM NaCl and 20.0 mM EDTA. The suspension is recentrifuged at 16,000×g for 10 min. This washing step is repeated one more time. The wash discarded and the lysed pellets homogenized in low ionic strength buffer of Tris.HCl, 5.0 mM, pH 7.5 containing 5.0 mM EDTA. The homogenate is centrifuged at 39,000×g for 10 min. The resulting pellet is resuspended in Tris.HCl buffer, 70.0 mM, pH 7.5 and recentrifuged at 39,000×g for 10 min. The final pellet is resuspended in 50.0 mM Tris.HCl buffer pH 7.4 containing 120 mM NaCl and 5.0 mM KCl to give 1.0-2.0 mg protein per ml of suspension.
(b) Binding to Vasopressin V1 Receptor Subtype in Human Platelet Membranes:
In wells of a 96 well format microtiter plate, add 100 μl of 50.0 mM Tris.HCl buffer containing 0.2% BSA and a mixture of protease inhibitors (aprotinin, leupeptin etc.). Then add 20 μl of [^3 H]Ligand (Manning or Arg^8 Vasopressin), to give final concentrations ranging from 0.01 to 10.0 nM. Initiate the binding by adding 80.0 μl of platelet suspension (approx. 100 μg protein). Mix all reagents by pipetting the mixture up and down a few times. Non specific binding is measured in the presence of 1.0 μM of unlabeled ligand (Manning or Arg^8 Vasopressin). Let the mixture stand undisturbed at room temperature for ninety (90) min. Upon this time, rapidly filter off the incubate under vacuum suction over GF/B filters, using a Brandel Harvester. The radioactivity caught on the filter disks is determined by the addition of liquid scintillant and counting in a liquid scintillator.

[4] = molecular target: vasopressin V1 receptor (rat liver plasma membranes) (Rattus norvegicus, UniProt P30560); assay: Binding Assay to Rat Hepatic V1 Receptors; settings: for IC50: rat hepatic V1; for inhibition at 10 µM: 2 h, rat hepatic, read-out: V1, % at concentration in brackets
Chain of vasopressin V1 receptor (rat liver plasma membranes) (P30560 whole entry): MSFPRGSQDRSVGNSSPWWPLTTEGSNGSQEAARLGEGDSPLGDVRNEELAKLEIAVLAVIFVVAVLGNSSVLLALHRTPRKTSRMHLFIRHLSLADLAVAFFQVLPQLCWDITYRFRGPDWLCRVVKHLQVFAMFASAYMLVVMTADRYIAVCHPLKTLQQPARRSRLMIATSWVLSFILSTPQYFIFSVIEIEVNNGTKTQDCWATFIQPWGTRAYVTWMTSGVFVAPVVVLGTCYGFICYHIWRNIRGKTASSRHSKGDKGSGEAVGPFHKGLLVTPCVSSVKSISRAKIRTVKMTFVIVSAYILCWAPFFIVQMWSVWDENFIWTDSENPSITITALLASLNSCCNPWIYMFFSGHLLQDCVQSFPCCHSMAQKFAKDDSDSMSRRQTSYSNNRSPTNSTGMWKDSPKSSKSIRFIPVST

[5] = test system: vasopressin V1; assay: Vasopressin V1 Antagonist Activity in Conscious Rats (vasopressin vasopressor response); format: in vivo, rat (spontaneously hypertensive rats); settings: 30 mg/kg i.v.
How it was run: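 Conscious rats had the ventral caudal tail artery cannulated into the lower abdominal aorta under local procaine anesthesia, plus a caudal vein cannula for intravenous dosing. Pulsatile blood pressure was recorded via a Statham P23Db transducer. Vasopressor responses to vasopressin injections were measured before and after compound dosing, with percent antagonism calculated relative to the pre-drug response taken as 100%.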

[6] = test system: vasopressin V2; assay: Vasopressin V2 Antagonist Activity in Conscious Hydrated Rats (diuretic effect); format: in vivo, normal Sprague-Dawley rats; settings: 30 mg/kg orally, AVP 0.4 μg/kg i.p.
How it was run: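 Conscious rats were dosed orally at 0.1–100 mg/kg, and AVP 0.4 μg/kg i.p. in peanut oil followed 1 h later. Urine volume, osmolality and Na/K/Cl were compared against AVP-treated controls, with non-AVP rats as water-loading controls.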

Row | inhibition at 10 µM [1] [%] | IC50 ([1]; second part of Table V) [nM] | IC50 [2] [nM] | IC50 [3] [nM] | IC50 [4] [nM] | inhibition at 10 µM [4] [%] | inhibition at 10 µM [2] [%] | IC50 ([1]; first part of Table V) [nM] | SMILES | MAX % Inhibition [5] [%] | Time of max % inhibition [5] [min] | Osmolality [6] [mOsm/kg] | Urine Volume [6] [ml/4 hrs.]
1 | 99 | 250 | 32 | 12 |  |  |  |  | Cc1ccccc1C(=O)Nc1ccc(C(=O)N2CCc3c[nH]nc3-c3ccccc32)cc1 [Example 585, N-[4-[(4.5-Dihydropyrazolo[4.3-d][1]benzaze-in-6(2H)-yl)carbonyl]phenyl]-2-methylbenzamide] |  |  |  | 
2 | 33 |  |  |  |  | 87 | 29 |  | O=C(c1ccc(NS(=O)(=O)c2ccccc2Cl)cc1)N1Cc2ccccc2Cc2ccccc21 [Example 450, 5-[4-[[(2-Chlorophenyl)sulfonyl]amino]benzoyl]-6,11-dihydro-5H-dibenz [b,e]azepine] |  |  |  | 
3 | 47 |  | 54 |  | 100 |  |  | 6500 | O=C(Nc1ccc(C(=O)N2Cc3ccccc3Cc3ccccc32)c(Cl)c1)c1ccc(Cl)cc1Cl [Example 256, N-[4-[(6,11-Dihydro-5H-dibenz[b,e]azepin-5-yl)-carbonyl]-3-chlorophenyl]-2,4-dichlorobenzamide] |  |  |  | 
4 | 78 | 2500 |  |  |  | 64 | 33 |  | CN(C)CC(=O)Nc1ccc(C(=O)N2Cc3ccccc3Cc3ccccc32)cc1 [Example 454] |  |  |  | 

The next lines start with the molecule.

Row | SMILES | inhibition at 10 µM [1] [%] | IC50 ([1]; second part of Table V) [nM] | IC50 [2] [nM] | IC50 [3] [nM] | IC50 [4] [nM] | inhibition at 10 µM [4] [%] | inhibition at 10 µM [2] [%] | IC50 ([1]; first part of Table V) [nM] | MAX % Inhibition [5] [%] | Time of max % inhibition [5] [min] | Osmolality [6] [mOsm/kg] | Urine Volume [6] [ml/4 hrs.]
5 | Cc1c(F)cccc1C(=O)Nc1ccc(C(=O)N2CCc3c[nH]nc3-c3ccccc32)c(Cl)c1 [Example 582] |  | 275 | 5.3 |  | 1300 |  |  |  |  |  |  | 
6 | Cc1c(F)cccc1C(=O)Nc1ccc(C(=O)N2Cc3ccccc3Cc3ccccc32)cc1 [Example 254, N-(4-[(6,11-Dihydro-5H-dibenz[b,e]azepin-5-yl)-carbonyl]phenyl]-2-methyl-3-fluorobenzamide] | 95 |  | 37 |  | 100 |  |  | 1900 | 74 | 60 |  | 
7 | O=C(Nc1ccc(C(=O)N2CCc3c[nH]nc3-c3ccccc32)cc1)c1ccc(Cl)cc1Cl [Example 583, N-[4-[(4,5-Dihydropyrazolo[4,3-d][1]benzazepin-6(2H)-yl)carbonyl]phenyl]-2,4-dichlorobenzamide] | 95 | 330 | 40 |  | 82 |  |  |  |  |  |  | 
8 | O=C(Nc1ccc(C(=O)N2Cc3ccccc3Cc3ccccc32)cc1)c1ccc(Cl)c(Cl)c1 [Example 250, N-[4-[(6,11-Dihydro-5H-dibenz[b,e]azepin-5-yl)-carbonyl]phenyl]-3,4-dichlorobenzamide] | 15 |  |  |  |  | 62 | 77 |  |  |  | 1378 | 6.5
9 | O=C(Nc1ccc(C(=O)N2Cc3ccccc3Cc3ccccc32)cc1)c1cc(Cl)cc(Cl)c1Cl [Example 249, N-[4-[(6,11-Dihydro-5H-dibenz[b,e]azepin-5-yl)-carbonyl]phenyl]-2,3 5-trichlorobenzamide] | 38 |  |  |  |  | 61 | 88 |  |  |  |  | 
10 | Cc1cccc(C(=O)Nc2ccc(C(=O)N3Cc4ccccc4Cc4ccccc43)cc2)c1C [Example 11, N-[4-[(6,11-Dihydro-5H-dibenz[b,e]azepin-5-yl)carbonyl]phenyl]-2,3-dimethylbenzamide] | 71 |  | 33 |  | 160 |  |  | 4400 |  |  | 1114 ± 55 | 9.7 ± 0.6

Reference: patent publication US5834461A, “Tricyclic benzazepine vasopressin antagonists” (American Cyanamid Company, priority 1997, dated 1998)
